In patent US7049334B2, “Enhancement of learning and memory and treatment of amnesia” (priority 2001, dated 2006):

Tested on: Schaffer collateral-CA1 pathway of rat hippocampal slices
Experiment: LTP induction in Schaffer collateral-CA1 pathway of hippocampal slices (fEPSP slope)
Format: cell-based, Wistar rats
Conditions: fEPSP slope 60 min after weak tetanus (50 Hz, 0.5 s); 1.6 μM perfused 3 min before and 3 min after tetanus

Row | Molecule | fEPSP [%]
1 | CNCc1ccc(-c2nn(Cc3ccccc3)c3ccccc23)o1 [Compound 2] | 165.9
2 | OCc1ccc(-c2nn(Cc3ccccc3)c3cc(F)ccc23)o1 [Compound 3] | 218.9
3 | COCc1ccc(-c2nn(Cc3ccccc3)c3ccccc23)o1 [Compound 4] | 216.9
4 | COc1ccc2c(-c3ccc(CO)o3)nn(Cc3ccccc3)c2c1 [Compound 5] | 180.8
5 | OCc1ccc(-c2nn(Cc3ccccc3)c3cc4c(cc23)OCO4)o1 [Compound 6] | 260.3
6 | COC(=O)c1ccc(-c2nn(Cc3ccccc3)c3ccccc23)o1 [Compound 7] | 200.3
7 | COC(=O)c1ccc(-c2n[nH]c3ccccc23)o1 [Compound 8] | 180.6

Tested on: hippocampal slices taken from young rats
Experiment: Plasticity induced by low-frequency stimulation (LTD) in hippocampal slices
Format: cell-based, Wistar rats
Conditions: 0.02 Hz stimulation; alone
Procedure: After decapitation, brains of either adult ([…], for the induction of long-term potentiation) or young (2–3 weeks old, for the induction of long-term depression) Wistar rats were rapidly removed, and the hippocampus was dissected out. Transverse hippocampal slices (450 μm thickness) were immediately placed in an ice-cold cutting buffer containing 124 mM NaCl, 3 mM KCl, 1.0 mM Na2HPO4, 25 mM NaHCO3, 0.5 mM CaCl2, 5.0 mM MgSO4, 10 mM glucose, saturated with 95% O2 and 5% CO2. The slices were then maintained in an interface chamber at room temperature, and perfused at flow rate of 1–2 mL/min with artificial cerebrospinal fluid (ACSF). The composition of ACSF contained 124 mM NaCl, 4.4 mM KCl, 1.0 mM Na2HPO4, 25 mM NaHCO3, 2.0 mM or 2.5 mM CaCl2, 1.0 mM MgSO4, 10 mM glucose, gassed with 95% O2 and 5% CO2. The field Excitatory Postsynaptic Potentials (fEPSP) was evoked by test pulses through a bipolar stimulating electrode placed on the Schaffer collateral/commissural pathway, and recorded from the stratum radiatum of CA1 using a glass micropipette electrode (5–10 MΩ) filled with 2 M NaCl. The test pulse duration was 100 μsec, and test responses were elicited at 0.02 Hz. To record field potentials in the cortico-amygdala pathway, a stimulating electrode was placed in the external capsule, which contained fibers from the auditory cortex to the lateral amygdala. Bicuculine (10 μM) was present in the perfusion solution when the fEPSPs of amygdala were recorded. To increase the effectiveness of fused pyrazolyl compounds that were applied through the perfusion system, the ACSF level in the recording chamber was sufficiently high to cover the hippocampal slices but not to float them. All fused pyrazolyl compounds were perfused in ACSF.
Evoked fEPSPs were recorded and data were analyzed. The initial slope of the fEPSPs was calculated, and the data were expressed as percentages of the average of the base-line slope of the fEPSPs.
Compound 1 on plasticity induced by low-frequency stimulation (LFS): LFS (900 pulses at 1 Hz) was delivered to hippocampal slices taken from young rats ([…]) to induce long-term depression (LTD). Stimulation of hippocampal slices at 1 Hz for 3 min produced no LTD of synaptic transmission. However, this short-duration LFS induced significant LTD in the presence of Compound 1 (83.4±10.9%, n=3). […] A weaker electrical stimulation at 0.02 Hz was delivered in the presence of both nitric oxide donor nitroprusside ([…]) and Compound 1 (1.6 μM). Simultaneous perfusion of the nitric oxide donor nitroprusside (30 μM) and Compound 1 (1.6 μM) induced LTD.

Row | Molecule | potentiation of fEPSP at 0.02 Hz stimulation, substance alone
8 | nitroprusside [reference compound] | produced no potentiation

Tested on: rats (spatial memory)
Experiment: Morris water maze
Format: in vivo
Conditions: L-NAME intracerebroventricular (1 mmole/10 mL) 10 min before first trial of daily training
Procedure: Morris water maze: Morris water maze was performed in a circular pool (224 cm in diameter, 46 cm in height) located in a room with distinctive visual cues. Water was filled to a depth of 36 cm and a transparent plastic platform (25×25 cm, 32 cm in height) was located at the center of a fixed quadrant. Rats were trained for two days in the task environment: free-swimming in the pool without the transparent plastic platform. Each training session was 2 min and the rats were picked up from the pool by an experimenter. Then, rats received 4 consecutive daily training trials for the following six days. During each training trial, each rat was placed into the water randomly from one of the quadrants. The rat had to swim until it climbed onto the plastic platform submerged underneath the water. The time duration from being placed into the water to climbing onto the plastic platform was recorded and defined as escape latency. […] Each rat stayed on the platform for 60 s, which also served as the interval of trial. Compound 1 (1 mg/kg) or vehicle was daily injected to each rat 10 min before the first training trial. After the last training trial of each day, each rat was dried by a towel, and an electric heater was placed in its home cage.
Substantial evidence implicates the hippocampus in acquisition and retention of spatial information. See, e.g., Ohon et al. (1979) Behav. Brain Sci. 2: 316–365; and Barnes (1988) Trend Neurosci. 11: 163–169. The effect of Compound 1 on the acquisition of spatial memory in the Morris water maze was tested. Rats received 4 consecutive training trials every day. Compound 1 (1 mg/kg) was daily injected (i.p., 1 mg/kg) 10 min before the first trial of training. […] The escape latencies of 2˜4 trials were 93.8±8.7 s, 79.3±12/3 s and 57.6±12.5 s for a control group, and 50.4±10.2 s, 47.3±6.8 s and 30.3±10.3 for the Compound 1 group (n=10), respectively. The escape latencies of the first trial on the following 3 training days were also markedly shortened in the Compound 1 group. The escape latencies were 91.1±9.8 s, 47.1±3.9 s and 35.3±6.1 s for the control group, and 55.4±12.8 s, 15.3±2.1 s, and 13.4±1.7 s for the Compound 1 group (n=10), respectively. […] The escape latency is shorter in the Compound 1 group throughout the whole experimental period up to 21 days although Compound 1 was only administered […] for 4 days. The mean escape latency on the day-21 is 13.5±1.8 s and 6.0±0.5 s (n=10 each) for the control group and the Compound 1 group, respectively. From results shown above, Compound 1 is a promising drug for improving learning and memory. Compound 1 was mixed with 1.25% carboxymethylcellulose (CMC) and orally delivered to stomach (10 mg/kg) directly 30 min before the first trial for 6 successive days.
Since L-NAME antagonized Compound 1-induced LTP enhancement in hippocampal slices, in vivo experiments were performed to test the effect of L-NAME on the improved learning and memory provoked by Compound 1. In these experiments, rats chronically implanted with cannulae were injected intracerebroventrically with L-NAME (1 mmole/10 mL) or saline 10 min before the first trial of daily training, concomitant with i.p. injection of Compound 1 (1 mg/kg). […] Intracerebroventricular administration of KT 5823 also impaired the Compound 1-induced enhancement.

Row | Molecule | effect of L-NAME on the task
9 | COC(=O)[C@@H](N)CCCNC(=N)N[N+](=O)[O-] [L-NAME, N^G-nitro-L-arginine-methylester, reference compound] | profound amnesia
